# According to US20120152149A1, “USE OF 1,3-DIOLS AS BIOCIDES” (BASF SE, priority 2009, published 2012):
# Read-outs that look alike come from different tables or passages of the source.
# What was measured:
# Type in all cases: cell-based
# [1] = tested on: C. albicans ATCC 10231; assay: Preservation stress test, example formulation 1 (standard emulsion O/W); conditions: 1% active substance
# Outline: (§1)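 O/W emulsion containing 1% diol (water as placebo), inoculated individually or as mixed culture at 10^5-10^6 CFU/g and held 28 d at 20-25° C. Surviving counts at 0, 2, 7, 14 and 28 d after dilution in neutralising phosphate buffer pH 7.4 with Tween 80/lecithin; expressed as log reduction from initial count.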
# [2] = tested on: A. niger ATCC 16404; assay: as above; conditions: 1% active substance
# Outline: as §1
# [3] = tested on: E. coli ATCC 10536; assay: Preservation stress test, example formulation 2 (roll-on deodorant formulation); conditions: 1% active substance
# Protocol: (§2) Preservation stress tests (PSTs) were carried out in order to determine the preserving activity of the diols. In the preservation stress test, this is simulated through artificial loadings with microorganisms. These can either be inoculated as mixed population or individually in mixtures independent of one another. The inoculated product samples are incubated under defined conditions and, after defined times, samples are taken in order to determine the germ loading. In the case of adequate preservation, the number of microorganisms should, depending on the type, either decrease or remain constant in order to satisfy the requirements specified, e.g. in Ph. Eur. 6.0. To investigate the preserving effect of the diols, application-typical amounts of the diols were incorporated into example formulations. […] [table] These example formulations were used to prepare various mixtures which each comprised 1% active substance or comprised water instead of the active substance as placebo mixtures. These mixtures were in each case inoculated with the test germs such that a germ loading of 10^5-10^6 CFU/g was present in the test mixture. The bacteria were either used individually for the inoculation or as a mixed culture. To determine the starting germ count, immediately after inoculation, an aliquot was taken, diluted in dilution medium (phosphate buffer, 0.07 molar pH 7.4 (+/−0.2), with 1% Tween 80+0.3% soya lecithin), and the surviving germ count was determined in the dilution stages 10^−1 to 10^−3. The inoculated product samples then incubated for a total of 28 d at 20-25° C. After 2 d, 7 d, 14 d and after 28 d, aliquots were taken and diluted in dilution medium (phosphate buffer, 0.07 molar pH 7.4 (+/−0.2), with 1% Tween 80+0.3% soya lecithin). The surviving germ counts were determined in the dilution stages 10^−1 to 10^−4. The reference point taken for determining the reduction in germ count was the respective initial value of the sample. The results were given as logarithmic reductions.
# [4] = tested on: C. albicans ATCC 10231; assay: as above; conditions: 1% active substance
# Protocol: as §2
# [5] = tested on: A. niger ATCC 16404; assay: as above; conditions: 1% active substance
# Protocol: as §2
# [6] = tested on: C. albicans NCPF 3179; assay: Microstatic activity, MIC in tryptone soy broth; conditions: Candida albicans, NCPF3179, 120 h, 25° C., 5 days
# Outline: (§3)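 Diols dissolved at 40 wt% in propylene glycol at 60 °C, diluted in tryptone soy broth to 400 000–3125 ppm, then inoculated (0.1 ml organism per 5 ml). Bacteria incubated 48 h at 30 °C, fungi 5 days at 25 °C. MIC taken as a range between the last concentration showing visible growth/clouding and the first without.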
# [7] = tested on: S. aureus NCIMB 9578; assay: Microstatic activity, MIC in tryptone soy broth; conditions: Staphylococcus aureus, NCIMB9578, 30° C., 48 hours
# Outline: as §3
# [8] = tested on: A. niger IMI 149007; assay: Microstatic activity, MIC in tryptone soy broth; conditions: Aspergillus niger, IMI149007, 120 h, 25° C., 5 days
# Outline: as §3
# [9] = tested on: E. coli NCIMB 8545; assay: Microstatic activity, MIC in tryptone soy broth; conditions: Escherichia coli, NCIMB8545, 30° C., 48 hours
# Outline: as §3
# [10] = tested on: P. vulgaris NCIMB 4175; assay: Microstatic activity, MIC in tryptone soy broth; conditions: Proteus vulgaris, NCIMB4175, 30° C., 48 hours
# Outline: as §3
# [11] = tested on: P. aeruginosa NCIMB 10421; assay: Microstatic activity, MIC in tryptone soy broth; conditions: Pseudomonas aeruginosa, NCIMB10421, 30° C., 48 hours, lower limit of MIC range, read-out: MIC value (ppm of diol), from
# Outline: as §3
# [12] = tested on: series of tested microorganisms (bacteria and fungi); assay: Microstatic activity, highest MIC from the series of tested microorganisms; conditions: highest measured MIC from the series of tested microorganisms; lower limit; read-out: Maximum MIC value (ppm of diol), from
# Outline: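 Diol tested for biocidal effect against a panel of bacteria and fungi; MIC taken as lowest concentration visibly hindering growth versus diol-free sample. Each MIC is a range between the next higher positive-test concentration and the first negative-test concentration; the series value is the highest MIC across organisms.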
# [13] = lower limit of MIC range, read-out: MIC value (ppm of diol), from
# [14] = upper limit of MIC range, read-out: MIC value (ppm of diol), to
structure (smiles),measurement,setting,value
"CCCCCC(CO)(CO)CCC [PPPD, 2-pentyl-2-propylpropane-1,3-diol]",Microbicidal activity given as logarithmic reduction in germ count,[1]; 48 h,≧3 log. Red.
same,Microbicidal activity given as logarithmic reduction in germ count,[1]; 7 d,5 log. Red.
same,Microbicidal activity given as logarithmic reduction in germ count,[1]; 14 d,5 log. Red.
same,Microbicidal activity given as logarithmic reduction in germ count,[1]; 28 d,5 log. Red.
same,Microbicidal activity given as logarithmic reduction in germ count,[2]; 48 h,0 log. Red.
same,Microbicidal activity given as logarithmic reduction in germ count,[2]; 7 d,1 log. Red.
same,Microbicidal activity given as logarithmic reduction in germ count,[2]; 14 d,1 log. Red.
same,Microbicidal activity given as logarithmic reduction in germ count,[2]; 28 d,1 log. Red.
same,Microbicidal activity given as logarithmic reduction in germ count,[3]; 48 h,≧3 log. Red.
same,Microbicidal activity given as logarithmic reduction in germ count,[3]; 7 d,5 log. Red.
same,Microbicidal activity given as logarithmic reduction in germ count,[3]; 14 d,5 log. Red.
same,Microbicidal activity given as logarithmic reduction in germ count,[3]; 28 d,5 log. Red.
same,Microbicidal activity given as logarithmic reduction in germ count,[4]; 48 h,0 log. Red.
same,Microbicidal activity given as logarithmic reduction in germ count,[4]; 7 d,0 log. Red.
same,Microbicidal activity given as logarithmic reduction in germ count,[4]; 14 d,0 log. Red.
same,Microbicidal activity given as logarithmic reduction in germ count,[5]; 48 h,0 log. Red.
same,Microbicidal activity given as logarithmic reduction in germ count,[5]; 7 d,0 log. Red.
same,Microbicidal activity given as logarithmic reduction in germ count,[5]; 14 d,0 log. Red.
same,MIC,[6]; [13],> 6.25 mg/mL
same,MIC,[6]; [14],≤ 12.5 mg/mL
same,MIC,[7]; [13],> 50 mg/mL
same,MIC,[7]; [14],≤ 100 mg/mL
same,MIC,[8]; [13],> 6.25 mg/mL
same,MIC,[8]; [14],≤ 12.5 mg/mL
same,MIC,[9]; [13],> 50 mg/mL
same,MIC,[9]; [14],≤ 100 mg/mL
same,MIC,[10]; [13],> 25 mg/mL
same,MIC,[10]; [14],≤ 50 mg/mL
same,MIC,[11],> 100 mg/mL
same,MIC,[12],> 100 mg/mL
